Like-named read-outs stand apart in the source and are kept apart here.
Assay: Tissue half-life (t1/2) and Cmax in plasma, brain, kidney and liver after oral administration to CD-1 mice
Format: in vivo, mouse
Details: male, mouse
Protocol: In vivo studies were conducted to observe the effect of the compounds of the invention in the subject animal. Male CD-1 mice, body weight of 20 grams at arrival, were used in these studies. Mice were given 30 mg/kg of compound in HPMC/Tween solution or suspension via oral gavage. Plasma, brain, and liver samples were collected at time periods of 1, 2, 4, 8, and 24 hours post dosing. One mouse was used per time point. Thus, a total of 5 mice were used for each compound tested. For sample collection, mice were euthanized with CO2. Blood samples were taken by cardiac puncture and kept on ice. Brain and liver samples were collected immediately after bleeding and the samples were kept on dry ice. For calculation of tissue half-lives (t1/2s), the terminal rate constant k was estimated by the absolute value of the slope of a log-linear regression of the terminal phase of the tissue concentration-time profile. The tissue half-life t1/2 is ln(2)/k.
The following table includes t1/2 data for plasma, brain, kidney, and liver obtained after oral administration.
Tissue Half-Life Data for Various Quinazolinone Compounds (PO)

[1] = brain t1/2, 30 mg/kg oral gavage (PO), read-out: Half-Lives (h) Brain (converted)
[2] = kidney t1/2, 30 mg/kg oral gavage (PO), read-out: Half-Lives (h) Kidney (converted)
[3] = liver t1/2, 30 mg/kg oral gavage (PO), read-out: Half-Lives (h) Liver (converted)
[4] = plasma t1/2, 30 mg/kg oral gavage (PO), read-out: Half-Lives (h) Plasma (converted)

half-life [1] [h] | half-life [2] [h] | half-life [3] [h] | half-life [4] [h] | SMILES
15 | – | 4.6 | 2.6 | C[C@@H]1[C@@H](N=C(Nc2ccc3c(=O)n(CCc4ccc(Br)cc4)c(-c4cnccn4)nc3c2)N2CCN[C@@H](C(F)F)C2)C[C@H]2C[C@@H]1C2(C)C [Example 231, (3R)-N-{3-[2-(4bromophenyl)ethyl]-4-oxo-2-pyrazin-2-yl-3,4-dihydroquinazolin-7-yl]-3-(difluoromethyl)-N′-[(1S,2S,3S,5R)-2,6,6-trimethylbicyclo[3.1.1]hept-3-yl]piperazine-1-carboximidamide]
– | 3.3 | 3.2 | 4.9 | COc1ccc(CCn2c(-c3cccnc3)nc3cc(N/C(=N/[C@H]4C[C@@H]5C[C@H]([C@@H]4C)C5(C)C)N4C[C@@H](C)N(O)[C@@H](C)C4)ccc3c2=O)c(F)c1 [Example 296, (3R,5S)-N-[3-{2-[2-fluoro-4-(methyloxy)phenyl]ethyl}-4-oxo-2-(3-pyridinyl)-3,4-dihydro-7-quinazolinyl]-4-hydroxy-3,5-dimethyl-N′-[(1R,2S,3S,5S)-2,6,6-trimethylbicyclo[3.1.1]hept-3-yl]-1-piperazinecarboximidamide]
– | – | 3.9 | 2.2 | C[C@@H]1[C@@H](N=C(Nc2ccc3c(=O)n(CCc4ccc(F)cc4)c(-c4cnccn4)nc3c2)N2CC(=O)N[C@@H](C)C2)C[C@H]2C[C@@H]1C2(C)C [Example 218, (3S)-N-{3-[2-(4-fluorophenyl)ethyl]-4-oxo-2-pyrazin-2-yl-3,4-dihydroquinazolin-7-yl}-3-methyl-5-oxo-N′-[(1S,2S,3S,5R)-2,6,6-trimethylbicyclo[3.1.1]hept-3-yl]piperazine-1-carboximidamide]
– | – | 5.9 | 3.1 | C[C@@H]1[C@@H](N=C(Nc2ccc3c(=O)n(CCc4ccc(Br)cc4)c(-c4cccnc4)nc3c2)N2CC(=O)N[C@@H](C)C2)C[C@H]2C[C@@H]1C2(C)C [Example 230, (3S)-N-{3-[2-(4-bromophenyl)ethyl]-4-oxo-2-pyridin-3-yl-3,4-dihydroquinazolin-7-yl}-3-methyl-5-oxo-N′-[(1S,2S,3S,5R)-2,6,6-trimethylbicyclo[3.1.1]hept-3-yl]piperazine-1-carboximidamide]
10 | – | 3.1 | 3 | COc1ccc(CCn2c(NC3CC3)nc3cc(NC(=N[C@H]4C[C@H]5C[C@@H]([C@@H]4C)C5(C)C)N4CC(=O)N[C@@H](C)C4)ccc3c2=O)c(F)c1 [Example 224, (3S)-N-{2-(cyclopropylamino)-3-[2-(2-fluoro-4-methoxyphenyl)ethyl]-4-oxo-3,4-dihydroquinazolin-7-yl}-3-methyl-5-oxo-N′-[(1S,2S,3S,5R)-2,6,6-trimethylbicyclo[3.1.1]hept-3-yl]piperazine-1-carboximidamide]
8 | – | 2.7 | 1.1 | C[C@@H]1[C@@H](N=C(Nc2ccc3c(=O)n(CCc4ccc(Cl)cc4)c(-c4cnccn4)nc3c2)N2CC(=O)N[C@@H](C)C2)C[C@H]2C[C@@H]1C2(C)C [Example 222, (3S)-N-{3-[2-(4-chlorophenyl)ethyl]-4-oxo-2-pyrazin-2-yl-3,4-dihydroquinazolin-7-yl}-3-methyl-5-oxo-N′-[(1S,2S,3S,5R)-2,6,6-trimethylbicyclo[3.1.1]hept-3-yl]piperazine-1-carboximidamide]
3.1 | 1.7 | 5.2 | 2.2 | COc1ccc(CCn2c(-c3cccnc3)nc3cc(NC(=N[C@H]4C[C@H]5C[C@@H]([C@@H]4C)C5(C)C)N4CCN(O)[C@@H](C)C4)ccc3c2=O)c(F)c1 [Example 245, (3S)-N-{3[2(2-fluoro-4-methoxyphenyl)ethyl]-4-oxo-2-pyridin-3-yl-3,4-dihydroquinazolin-7-yl}-4-hydroxy-3-methyl-N′-[(1S,2S,3S,5R)-2,6,6-trimethylbicyclo[3.1.1]hept-3-yl]piperazine-1-carboximidamide]
6.1 | – | 5.6 | 4.7 | C[C@@H]1[C@@H](N=C(Nc2ccc3c(=O)n(CCc4ccc(Cl)cc4)c(-c4cnccn4)nc3c2)N2CCN[C@@H](C(F)F)C2)C[C@H]2C[C@@H]1C2(C)C [Example 235, (3R)-N-{3-[2-(4-chlorophenyl)ethyl]-4-oxo-2-pyrazin-2-yl-3,4-dihydroquinazolin-7-yl}-3-(difluoromethyl)-N′-[(1 S,2S,3S,5R)-2,6,6-trimethylbicyclo[3.1.1]hept-3-yl]piperazine-1-carboximidamide]
15 | – | 44 | 6.4 | C[C@@H]1[C@@H](N=C(Nc2ccc3c(=O)n(CCc4ccc(Br)cc4F)c(-c4cnccn4)nc3c2)N2CCN[C@@H](C(F)F)C2)C[C@H]2C[C@@H]1C2(C)C [Example 233, (3R)-N-{3-[2-(4-bromo-2-fluorophenyl)ethyl]-4-oxo-2-pyrazin-2-yl-3,4-dihydroquinazolin-7-yl}-3-(difluoromethyl)-N′-[(1S,2S,3S,5R)-2,6,6-trimethylbicyclo[3.1.1]hept-3-yl]piperazine-1-carboximidamide]

More lines, now with the values behind:

SMILES | half-life [1] [h] | half-life [2] [h] | half-life [3] [h] | half-life [4] [h]
COc1ccc(CCn2c(-c3cccnc3)nc3cc(NC(=N[C@H]4C[C@H]5C[C@@H]([C@@H]4C)C5(C)C)N4CCN(CC#N)[C@@H](C)C4)ccc3c2=O)c(F)c1 [Example 247, (3S)-4-(cyanomethyl)-N-{3-[2-(2-fluoro-4-methoxyphenyl)ethyl]-4-oxo-2-pyridin-3-yl-3,4-dihydroquinazolin-7-yl}-3-methyl-N′-[(1S,2S,3S,5R)-2,6,6-trimethylbicyclo[3.1.1]hept-3-yl]piperazine-1-carboximidamide] | 12 | 11 | 8 | 18
COc1ccc(CCn2c(-c3cccnc3)nc3cc(NC(=N[C@H]4C[C@H]5C[C@@H]([C@@H]4C)C5(C)C)N4CCN[C@@H](C(F)F)C4)ccc3c2=O)c(F)c1 [Example 220, (3R)-3-(difluoromethyl)-N-{3-[2-(2-fluoro-4-methoxyphenyl)ethyl]-4-oxo-2-pyridin-3-yl-3,4-dihydroquinazolin-7-yl}-N′-[(1S,2S,3S,5R)-2,6,6-trimethylbicyclo[3.1.1]hept-3-yl]piperazine-1-carboximidamide] | 3.1 | – | 2.5 | 2.1
COc1ccc(CCn2c(N3CCOCC3)nc3cc(NC(=N[C@H]4C[C@H]5C[C@@H]([C@@H]4C)C5(C)C)N4CC(=O)N[C@@H](C)C4)ccc3c2=O)c(F)c1 [Example 221, (3S)-N-{3-[2-(2-fluoro-4-methoxyphenyl)ethyl]-2-morpholin-4-yl-4-oxo-3,4-dihydroquinazolin-7-yl}-3-methyl-5-oxo-N′-[(1S,2S,3S,5R)-2,6,6-trimethylbicyclo[3.1.1]hept-3-yl]piperazine-1-carboximidamide] | 6.9 | – | 2.9 | 2.9
COc1ccc(CCn2cnc3cc(N/C(=N/[C@H]4C[C@@H]5C[C@H]([C@@H]4C)C5(C)C)N(C)CCO)ccc3c2=O)c(F)c1 [Example 288] | – | – | 1.2 | 1.1
COc1ccc(CCn2cnc3cc(N/C(=N/[C@H]4C[C@@H]5C[C@H]([C@@H]4C)C5(C)C)N4C[C@@H](C)N(C#N)[C@@H](C)C4)ccc3c2=O)c(F)c1 [Example 301, (3R,5S)-4-cyano-N-(3-{-[2-fluoro-4-(methyloxy)phenyl]ethyl}-4-oxo-3,4-dihydro-7-quinazolinyl]-3,5-dimethyl-N′-[(1R,2S,3S,5S)-2,6,6-trimethylbicyclo[3.1.1]hept-3-yl]-1-piperazinecarboximidamide] | – | 9.4 | 3.6 | 2.5
COc1ccc(CCn2cnc3cc(N/C(=N/C4C[C@@H]5C[C@H]([C@@H]4C)C5(C)C)N4CC(C)CC(C)C4)ccc3c2=O)c(F)c1 (stereo partly drawn) [Example 274, N-(3-{2-[2-fluoro-4-(methyloxy)phenyl]ethyl}-4-oxo-3,4-dihydro-7-quinazolinyl)-3,5-dimethyl-N-[(1R,2S,5S)-2,6,6-trimethylbicyclo[3.1.1]hept-3-yl]-1-piperidinecarboximidamide] | – | 2.7 | 2.3 | 2.1
C[C@@H]1[C@@H](/N=C(/Nc2ccc3c(=O)n(CCc4ccc(Cl)cc4Cl)cnc3c2)N2CCNC(=O)C2)C[C@@H]2C[C@H]1C2(C)C [Example 260, N-{3-[2-(2,4-dichlorophenyl)ethyl]-4-oxo-3,4-dihydroquinazolin-7-yl]-3-oxo-N′-[(1R,2S,3S,5S)-2,6,6-trimethylbicyclo[3.1.1]hept-3-yl]piperazine-1-carboximidamide] | – | 7.3 | – | 7.2
COc1ccc(CCn2cnc3cc(N/C(=N/[C@H]4C[C@@H]5C[C@H]([C@@H]4C)C5(C)C)N4CCC[C@H]4CO)ccc3c2=O)c(F)c1 [Example 281, (2S)-N-(3-{2-[2-fluoro-(methyloxy)phenyl]ethyl]-4-oxo-3,4-dihydro-7-quinazolinyl)-2-(hydroxymethyl)-N′-[(1R,2S,3S,5S)-2,6,6-trimethylbicyclo[3.1.1]hept-3-yl]-1-pyrrolidinecarboximidamide] | – | 6.5 | – | 5.3
